Reference: patent US20120264685A1 (priority 2009, published 2012)
Where a SMILES comes first, the peptide text is derived from it. Where no end group is shown, it is not given here. [ ]: non-standard residue; d: D form. ξ: configuration not given here. ξαMeBip(2'-Et,4'-OMe) = CCc1cc(OC)ccc1-c1ccc(CC(C)(N)C(=O)O)cc1; Bip(2'-Et-4'-OMe) = CCc1cc(OC)ccc1-c1ccc(C[C@H](N)C(=O)O)cc1; ξαMePhe(2,6-F2) = CC(N)(Cc1c(F)cccc1F)C(=O)O; αMePhe(2-F) = C[C@](N)(Cc1ccccc1F)C(=O)O; ξαMe(hhPhe) = CC(N)(CCCc1ccccc1)C(=O)O; ξαMePhe(2-F) = CC(N)(Cc1ccccc1F)C(=O)O; αMeD = C[C@](N)(CC(=O)O)C(=O)O; ξhhPhe = NC(CCCc1ccccc1)C(=O)O; ξαMeD = CC(N)(CC(=O)O)C(=O)O; αMeAPPA = not defined here; αMeS = C[C@](N)(CO)C(=O)O; ξαMeP = CC1(C(=O)O)CCCN1; ξαMeS = CC(N)(CO)C(=O)O; Aib = CC(C)(N)C(=O)O

What was measured:
[1] = tested on: RIN5F (Rat Insulinoma) cells; assay: In vitro glucose-dependent insulin secretion (RIN5F cell assay); assay type: cell-based; settings: 16.7-mM glucose load, n = 3, mean ± S.D.
Summary of the method: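 Rat RIN5F cells were preincubated 40 min in Krebs-Ringer buffer with 1.1 mM glucose and 0.5% BSA, pH 7.4, then exposed to test peptidomimetics for 30 min at 37 °C with 16.7 mM or 0 mM glucose. Supernatant insulin was measured by rat insulin ELISA and normalised to total protein (BCA), as pg/μg.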

DPP IV enzyme = DPP IV enzyme (Homo sapiens, UniProt P27487); assay: Stability against DPP IV enzyme; assay type: in vitro ADME; settings: 2 μM, 37° C.; for half-life: read-out: half-life (t1/2) with DPP-IV enzyme
[2] = Stability in human plasma; assay type: in vitro ADME; settings: 2 μM, 37° C.; for half-life: human, plasma, read-out: half-life (t1/2) in human plasma
[3] = Stability in simulated gastric fluid; assay type: in vitro ADME; settings: 2 μM, 37° C.; for % degradation in 24 h when incubated with simulated gastric fluid: pH 1.5, 24 h; for half-life: simulated gi fluid, read-out: half-life (t1/2) in simulated gastric fluid; for half-life / half-life (t1/2) in simulated gastric fluid: pH 1.5
Experimental: (§1) Reactions were terminated by the addition of TFA/H2O ([…], 10% (v/v)). […] The column was equilibrated with TFA/H20, at a flow rate of 1 mL/min. […] The absorbance was monitored at 206 nm using UV detector and peaks were collected manually prior to ESI-MS analysis.

[4] = Stability in simulated intestinal fluid; assay type: in vitro ADME; settings: 2 μM, 37° C.; for % degradation in 24 h when incubated with simulated intestinal fluid: pH 7.5, 24 h; for half-life: simulated gi fluid, read-out: half-life (t1/2) in simulated intestinal fluid; for half-life / half-life (t1/2) in simulated intestinal fluid: pH 7.5
Experimental: as §1

[5] = Stability in liver microsomes; assay type: in vitro ADME, human; settings: 2 μM, 37° C.; for half-life: human, microsomes, read-out: half-life (t1/2) in liver microsomes
Experimental: as §1

human GLP-1 receptor = human GLP-1 receptor (human, UniProt P43220 24-463); assay: cell-based or functional assay

Chain of DPP IV enzyme (P27487 whole entry, species assumed): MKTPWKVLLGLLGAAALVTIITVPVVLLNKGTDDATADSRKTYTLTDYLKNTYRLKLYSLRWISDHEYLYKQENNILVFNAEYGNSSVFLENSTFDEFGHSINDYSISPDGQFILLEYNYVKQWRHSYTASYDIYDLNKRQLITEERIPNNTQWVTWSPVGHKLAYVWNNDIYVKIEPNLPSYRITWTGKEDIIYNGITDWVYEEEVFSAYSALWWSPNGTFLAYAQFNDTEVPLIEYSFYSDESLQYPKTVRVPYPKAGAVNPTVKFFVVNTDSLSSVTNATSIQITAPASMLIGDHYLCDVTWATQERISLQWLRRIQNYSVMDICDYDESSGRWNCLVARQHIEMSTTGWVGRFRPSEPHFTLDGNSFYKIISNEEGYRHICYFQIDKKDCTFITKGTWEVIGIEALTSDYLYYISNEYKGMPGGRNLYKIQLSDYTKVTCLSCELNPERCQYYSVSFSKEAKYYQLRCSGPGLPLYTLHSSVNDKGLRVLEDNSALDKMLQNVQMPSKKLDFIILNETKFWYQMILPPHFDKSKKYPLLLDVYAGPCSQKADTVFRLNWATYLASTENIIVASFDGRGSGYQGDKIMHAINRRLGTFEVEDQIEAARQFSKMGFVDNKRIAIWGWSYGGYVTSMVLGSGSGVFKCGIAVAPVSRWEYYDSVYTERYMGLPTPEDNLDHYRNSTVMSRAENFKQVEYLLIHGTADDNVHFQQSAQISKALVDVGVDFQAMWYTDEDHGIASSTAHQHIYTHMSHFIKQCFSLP

Row | Molecule | % degradation in 24 h when incubated with DPP-IV enzyme (DPP IV enzyme) [%] | half-life (t1/2) in human plasma [2] | % degradation in 24 h when incubated with human plasma [2] [%] | % degradation in 24 h when incubated with simulated gastric fluid [3] [%] | half-life [3] [h] | % degradation in 24 h when incubated with simulated intestinal fluid [4] [%] | half-life [4] [h] | % degradation in 24 h when incubated with liver microsomes [5] [%] | half-life [5] [h] | half-life (DPP IV enzyme) [h] | half-life [2] [h] | half-life (t1/2) in simulated gastric fluid [3] | half-life (t1/2) in simulated intestinal fluid [4] | EC50, in-vitro human GLP-1 receptor agonistic activity (cAMP) (human GLP-1 receptor) [nM] | Insulin secretion ([1]; 0.1 nM test compd.) [pg/µg/h] | Insulin secretion ([1]; 1 nM test compd.) [pg/µg/h] | Insulin secretion ([1]; 10 nM test compd.) [pg/µg/h]
1 | CCc1cc(OC)ccc1-c1ccc(CC(C)(NC(=O)[C@H](CC(=O)O)NC(=O)C(C)(CO)NC(=O)[C@@H](NC(=O)C(C)(Cc2ccccc2F)NC(=O)[C@@H](NC(=O)CNC(=O)[C@H](CCC(N)=O)NC(=O)[C@H](CO)NC(=O)[C@H](Cc2c[nH]cn2)NC(=O)[C@@H](N)C(C)C)[C@@H](C)O)[C@@H](C)O)C(=O)NC(C)(CCCc2ccccc2)C(N)=O)cc1 (stereo partly shown) [compound 165] (H-VHSQGT[ξαMePhe(2-F)]T[ξαMeS]D[ξαMeBip(2'-Et,4'-OMe)][ξαMe(hhPhe)]-NH2) | 72 | (9) h | 70 | 100 | 0.5 | 100 | 0.5 | 100 | 0.5 |  |  |  |  |  | 12.1 ± 0.42 | 14.6 ± 0.41 | 27.8 ± 0.46
2 | CCc1cc(OC)ccc1-c1ccc(CC(C)(NC(=O)[C@H](CC(=O)O)NC(=O)C(C)(CO)NC(=O)[C@@H](NC(=O)C(C)(Cc2ccccc2F)NC(=O)[C@@H](NC(=O)CNC(=O)[C@H](CCC(=O)O)NC(=O)[C@H](C)NC(=O)[C@H](Cc2c[nH]cn2)NC(=O)[C@@H](N)C(C)C)[C@@H](C)O)[C@@H](C)O)C(=O)NC(C)(CCCc2ccccc2)C(N)=O)cc1 (stereo partly shown) [compound 170] (H-VHAEGT[ξαMePhe(2-F)]T[ξαMeS]D[ξαMeBip(2'-Et,4'-OMe)][ξαMe(hhPhe)]-NH2) | 00 |  | 00 | 52 | 4 | 00 | > 24 | 81 | 2 | > 24 | > 24 |  |  |  | 12.3 ± 0.33 | 14.8 ± 0.16 | 28.1 ± 0.22
3 | CCc1cc(OC)ccc1-c1ccc(CC(C)(NC(=O)[C@H](CC(=O)O)NC(=O)C(C)(CO)NC(=O)[C@@H](NC(=O)C(C)(Cc2c(F)cccc2F)NC(=O)[C@@H](NC(=O)CNC(=O)[C@H](CCC(=O)O)NC(=O)[C@H](C)NC(=O)[C@H](Cc2c[nH]cn2)NC(=O)[C@@H](N)C(C)C)[C@@H](C)O)[C@@H](C)O)C(=O)NC(C)(CCCc2ccccc2)C(N)=O)cc1 (stereo partly shown) [compound 178] (H-VHAEGT[ξαMePhe(2,6-F2)]T[ξαMeS]D[ξαMeBip(2'-Et,4'-OMe)][ξαMe(hhPhe)]-NH2) | 00 |  | 00 | 43 | 4 | 00 | > 24 | 84 | 2 | > 24 | > 24 |  |  |  | 17.1 ± 0.11 | 23.1 ± 0.16 | 37.0 ± 0.29
4 | CCc1cc(OC)ccc1-c1ccc(CC(C)(NC(=O)C(C)(CC(=O)O)NC(=O)[C@H](CO)NC(=O)[C@@H](NC(=O)[C@H](Cc2ccccc2)NC(=O)[C@@H](NC(=O)CNC(=O)[C@H](CCC(=O)O)NC(=O)C2(C)CCCN2C(=O)[C@H](Cc2c[nH]cn2)NC(=O)[C@@H](N)C(C)C)[C@@H](C)O)[C@@H](C)O)C(=O)NC(C)(CCCc2ccccc2)C(N)=O)cc1 (stereo partly shown) [compound 188] (H-VH[ξαMeP]EGTFTS[ξαMeD][ξαMeBip(2'-Et,4'-OMe)][ξαMe(hhPhe)]-NH2) | 00 |  | 00 | 41 | 4 | 00 | > 24 | 80 | 2 | > 24 | > 24 |  |  |  | 12.9 ± 0.14 | 15.8 ± 0.13 | 29.9 ± 0.15
5 | VH[Aib]EGT[αMePhe(2-F)]T[αMeS][αMeD][Bip(2'-Et-4'-OMe)][αMeAPPA] (not fully specified (C-terminus); reading uncertain) [Seq. ID. No. 121] |  |  |  |  |  |  |  |  |  |  |  |  |  | 8 |  |  | 

Further lines, with some results ahead:

Row | % degradation in 24 h when incubated with DPP-IV enzyme (DPP IV enzyme) [%] | half-life (t1/2) in human plasma [2] | % degradation in 24 h when incubated with human plasma [2] [%] | % degradation in 24 h when incubated with simulated gastric fluid [3] [%] | half-life [3] [h] | % degradation in 24 h when incubated with simulated intestinal fluid [4] [%] | half-life [4] [h] | % degradation in 24 h when incubated with liver microsomes [5] [%] | half-life [5] [h] | half-life (DPP IV enzyme) [h] | half-life [2] [h] | half-life (t1/2) in simulated gastric fluid [3] | half-life (t1/2) in simulated intestinal fluid [4] | EC50, in-vitro human GLP-1 receptor agonistic activity (cAMP) (human GLP-1 receptor) [nM] | Molecule | Insulin secretion ([1]; 0.1 nM test compd.) [pg/µg/h] | Insulin secretion ([1]; 1 nM test compd.) [pg/µg/h] | Insulin secretion ([1]; 10 nM test compd.) [pg/µg/h]
6 | 76 |  | 78 | 12 |  | 55 |  | 79 | 1 | 9 | 8 | (8) h | (6) h |  | CCc1cc(OC)ccc1-c1ccc(CC(C)(NC(=O)C(C)(CC(=O)O)NC(=O)[C@H](CO)NC(=O)[C@@H](NC(=O)C(C)(Cc2ccccc2F)NC(=O)[C@@H](NC(=O)CNC(=O)[C@H](CCC(N)=O)NC(=O)C(C)(C)NC(=O)[C@H](Cc2c[nH]cn2)NC(=O)[C@@H](N)C(C)C)[C@@H](C)O)[C@@H](C)O)C(=O)NC(C)(CCCc2ccccc2)C(N)=O)cc1 (stereo partly shown) [compound 191] (H-VH[Aib]QGT[ξαMePhe(2-F)]TS[ξαMeD][ξαMeBip(2'-Et,4'-OMe)][ξαMe(hhPhe)]-NH2) | 16.1 ± 0.22 | 22.1 ± 0.26 | 36.0 ± 0.36
7 | 75 |  | 77 | 14 |  | 45 |  | 81 | 1 | 9 | 8 | (8) h | (6) h |  | CCc1cc(OC)ccc1-c1ccc(CC(C)(NC(=O)C(C)(CC(=O)O)NC(=O)[C@H](CO)NC(=O)[C@@H](NC(=O)C(C)(Cc2c(F)cccc2F)NC(=O)[C@@H](NC(=O)CNC(=O)[C@H](CCC(=O)O)NC(=O)[C@H](CO)NC(=O)[C@H](Cc2c[nH]cn2)NC(=O)[C@@H](N)C(C)C)[C@@H](C)O)[C@@H](C)O)C(=O)NC(C)(CCCc2ccccc2)C(N)=O)cc1 (stereo partly shown) [compound 201] (H-VHSEGT[ξαMePhe(2,6-F2)]TS[ξαMeD][ξαMeBip(2'-Et,4'-OMe)][ξαMe(hhPhe)]-NH2) | 15.4 ± 0.14 | 21.2 ± 0.18 | 35.6 ± 0.17
8 | 00 |  | 00 | 43 | 4 | 00 | > 24 | 84 | 2 | > 24 | > 24 |  |  |  | CCc1cc(OC)ccc1-c1ccc(CC(C)(NC(=O)[C@H](CC(=O)O)NC(=O)[C@H](CO)NC(=O)[C@@H](NC(=O)[C@H](Cc2ccccc2)NC(=O)[C@@H](NC(=O)CNC(=O)[C@H](CCC(N)=O)NC(=O)[C@H](CO)NC(=O)[C@H](Cc2c[nH]cn2)NC(=O)[C@@H](NC(=O)[C@@H](N)C(C)C)C(C)C)[C@@H](C)O)[C@@H](C)O)C(=O)NC(CCCc2ccccc2)C(N)=O)cc1 (stereo partly shown) [compound 205] (H-VVHSQGTFTSD[ξαMeBip(2'-Et,4'-OMe)][ξhhPhe]-NH2) | 12.6 ± 0.25 | 15.3 ± 0.31 | 29.7 ± 0.48
